According to patent US4198506A, “2-Carboxyalkyl-2,3-dihydro-6-mercapto-s-triazolo[4,3-b]-pyridazin-3-ones” (Bristol-Myers Company, priority 1979, dated 1980):
Values after ≈ are worked out from the molar mass of the structure shown. Values joined by “and” are separate entries in the source; they are usually repeats but may differ in a detail not shown here. Equal entries are not always repeated. Where two headings read alike, the source gives them in different places.

What was measured:
Providencia sp. = assay: In vitro activity (geometric mean MIC, serial dilution); format: cell-based; details: 5 strains, Mueller-Hinton agar, inoculum 10^4 dilution, MIC cutoff 200 mcg./ml., read-out: Geometric Mean MIC
Proteus (indole-) = assay: as above; format: cell-based; details: read-out: Geometric Mean MIC
[1] = test system: Proteus (indole +, cephalosporinase +); assay: as above; format: cell-based; details: 5 strains; Mueller-Hinton agar, inoculum 10^4 dilution; MIC cutoff 200 mcg./ml.; read-out: Geometric Mean MIC
Enterob. cloacae = assay: In vitro antibacterial activity (Steers' agar dilution MIC); format: cell-based; details: read-out: MIC
S. aureus = assay: as above; format: cell-based; details: Staphylococcus aureus
From the text: (§1) In vitro Antibacterial Activity of BB-S493 Compared with
(§2) BB-S479 and Cefamandole (Determined by Steers' Agar Dilu-
(§3) tion Method on Mueller-Hinton Agar Plate)
(§4) In vitro antibacterial activity of BB-S 525 compared with
(§5) BB-S 479 and cefamandole (determined by Steers' agar dilution
(§6) method on Mueller-Hinton agar plate)

Shig. sonnei = assay: as above; format: cell-based; details: Shigella sonnei
From the text: as §1, §2, §3, §4, §5, §6

E. coli = assay: as above; format: cell-based; details: Escherichia coli
From the text: as §1, §2, §3, §4, §5, §6

Shig. flexneri = assay: as above; format: cell-based
From the text: as §1, §2, §3, §4, §5, §6

Kl. pneumoniae = assay: as above; format: cell-based; details: Klebsiella pneumoniae
From the text: as §1, §2, §3, §4, §5, §6

Sal. typhosa = assay: as above; format: cell-based
From the text: as §1, §2, §3, §4, §5, §6

D. pneumoniae = assay: In vitro activity (geometric mean MIC, serial dilution); format: cell-based; details: Streptococcus pneumoniae; 9 strains; Mueller-Hinton agar, inoculum 10^4 dilution; MIC cutoff 200 mcg./ml.
[2] = test system: Enterobacter (Cephalosporinase +); assay: as above; format: cell-based; details: 7 strains, Mueller-Hinton agar, inoculum 10^4 dilution, MIC cutoff 200 mcg./ml.
Enterobacter (sensitive) = assay: as above; format: cell-based; details: read-out: Geometric Mean MIC
E. coli (sensitive) = assay: as above; format: cell-based; details: Escherichia coli; 13 strains; Mueller-Hinton agar, inoculum 10^4 dilution; MIC cutoff 200 mcg./ml.; read-out: Geometric Mean MIC
Klebsiella sp. = assay: as above; format: cell-based; details: 12 strains, Mueller-Hinton agar, inoculum 10^4 dilution, MIC cutoff 200 mcg./ml., read-out: Geometric Mean MIC
S. aureus Smith = assay: In vivo activity (Mice, sc); details: several determinations listed
From the text: |In vivo Activity of BB-[…] and Related Compounds (Mice, sc) | (PD50 (mgm./kg.)

S. pyogenes = assay: In vitro activity (geometric mean MIC, serial dilution); format: cell-based; details: Streptococcus pyogenes; 10 strains; Mueller-Hinton agar, inoculum 10^4 dilution; MIC cutoff 200 mcg./ml.
[3] = test system: S. aureus penicillinase+); assay: as above; format: cell-based; details: Staphylococcus aureus, read-out: Geometric Mean MIC
St. faecalis = assay: In vitro antibacterial activity (Steers' agar dilution MIC); format: cell-based; details: Enterococcus faecalis, read-out: MIC
Shig. dysenteriae = assay: as above; format: cell-based; details: Shigella dysenteriae
S. aureus (sensitive) = assay: In vitro activity (geometric mean MIC, serial dilution); format: cell-based; details: Staphylococcus aureus, read-out: Geometric Mean MIC
Serr. marcescens = assay: In vitro antibacterial activity (Steers' agar dilution MIC); format: cell-based; details: Serratia marcescens
S. marcescens = assay: In vitro activity (geometric mean MIC, serial dilution); format: cell-based; details: Serratia marcescens; 16 strains; Mueller-Hinton agar, inoculum 10^4 dilution; MIC cutoff 200 mcg./ml.; read-out: Geometric Mean MIC
Pr. mirabilis = assay: In vitro antibacterial activity (Steers' agar dilution MIC); format: cell-based; details: Proteus mirabilis, read-out: MIC
Pr. morganii = assay: as above; format: cell-based; details: Morganella morganii, read-out: MIC
Sal. enteritidis = assay: as above; format: cell-based; details: Salmonella enterica

CNCc1ccccc1CC(=O)N[C@@H]1C(=O)N2C(C(=O)O)=C(CSc3ccc4nn(CC(=O)O)c(=O)n4n3)CS[C@H]12 [BB-S479, 7-[o-(Methylaminomethyl)phenylacetamido]-3-(2-carboxymethyl-2,3-dihydro-s-triazolo[4,3-b]pyridazin-3-on-6-ylthiomethyl)-3-cephem-4-carboxylic Acid]
MIC (Providencia sp.): 4.2 µg/mL (≈ 7 µM)
MIC (Proteus (indole-)): 0.5 µg/mL (≈ 0.834 µM)
MIC [1]: 4.8 µg/mL (≈ 8 µM)
MIC (Enterob. cloacae; table 2 (BB-S493), Enterob. cloacae A9656): 1.6 µg/mL (≈ 2.67 µM)
MIC (Enterob. cloacae; table 4 (BB-S 525), Enterob. cloacae): 3.1 µg/mL (≈ 5.17 µM)
MIC (S. aureus; table 2 (BB-S493), S. aureus A9497): 0.1 µg/mL (≈ 0.167 µM)
MIC (S. aureus; table 2 (BB-S493), S. aureus BX-1633 A9606): 0.4 µg/mL (≈ 0.667 µM)
MIC (S. aureus; table 2 (BB-S493), S. aureus Smith A9537): 0.4 µg/mL (≈ 0.667 µM)
MIC (S. aureus; table 4 (BB-S 525), S. aureus (strain not given)): 0.2 µg/mL (≈ 0.334 µM)
MIC (S. aureus; table 4 (BB-S 525), S. aureus BX-1633): 0.8 µg/mL (≈ 1.33 µM)
MIC (S. aureus; table 4 (BB-S 525), S. aureus Smith): 0.4 µg/mL (≈ 0.667 µM)
MIC (Shig. sonnei; table 2 (BB-S493), Shig. sonnei A9516): 0.025 µg/mL (≈ 0.0417 µM)
MIC (Shig. sonnei; table 4 (BB-S 525), Shig. sonnei): 0.1 µg/mL (≈ 0.167 µM)
MIC (E. coli; ATCC8739, table 2 (BB-S493), E. coli ATCC 8739, read-out: MIC): 0.05 µg/mL (≈ 0.0834 µM)
MIC (E. coli; ATCC8739, table 4 (BB-S 525), E. coli ATCC 8739): 3.1 µg/mL (≈ 5.17 µM)
MIC (E. coli; table 2 (BB-S493), E. coli A9660, read-out: MIC): 0.05 µg/mL (≈ 0.0834 µM)
MIC (E. coli; table 2 (BB-S493), E. coli A15147, read-out: MIC): 3.1 µg/mL (≈ 5.17 µM)
MIC (E. coli; table 2 (BB-S493), E. coli A15810, read-out: MIC): 0.1 µg/mL (≈ 0.167 µM)
MIC (E. coli; table 2 (BB-S493), E. coli BX-1373, read-out: MIC): 0.2 µg/mL (≈ 0.334 µM)
MIC (E. coli; table 2 (BB-S493), E. coli Juhl A15119, read-out: MIC): 0.1 µg/mL (≈ 0.167 µM)
MIC (E. coli; table 2 (BB-S493), E. coli NIHJ, read-out: MIC): 0.05 µg/mL (≈ 0.0834 µM)
MIC (E. coli; table 4 (BB-S 525), E. coli BX-1373, read-out: MIC): 0.2 µg/mL (≈ 0.334 µM)
MIC (E. coli; table 4 (BB-S 525), E. coli Juhl, read-out: MIC): 0.2 µg/mL (≈ 0.334 µM)
MIC (E. coli; table 4 (BB-S 525), E. coli NIHJ, read-out: MIC): 0.1 µg/mL (≈ 0.167 µM)
MIC (E. coli; table 4 (BB-S 525), E. coli, strain not given, 1st line, read-out: MIC): 0.1 µg/mL (≈ 0.167 µM)
MIC (E. coli; table 4 (BB-S 525), E. coli, strain not given, 2nd line, read-out: MIC): 0.05 µg/mL (≈ 0.0834 µM)
MIC (E. coli; table 4 (BB-S 525), E. coli, strain not given, 3rd line, read-out: MIC): 3.1 µg/mL (≈ 5.17 µM)
MIC (Shig. flexneri; Shigella flexneri, table 2 (BB-S493), Shig. flexneri A9684, read-out: MIC): 12.5 µg/mL (≈ 20.8 µM)
MIC (Shig. flexneri; table 4 (BB-S 525), Shig. flexneri): 12.5 µg/mL (≈ 20.8 µM)
MIC (Kl. pneumoniae; table 2 (BB-S493), Kl. pneumoniae A9678): 0.4 µg/mL (≈ 0.667 µM)
MIC (Kl. pneumoniae; table 2 (BB-S493), Kl. pneumoniae A9867): 0.1 µg/mL (≈ 0.167 µM)
MIC (Kl. pneumoniae; table 2 (BB-S493), Kl. pneumoniae A9977): 0.1 µg/mL (≈ 0.167 µM)
MIC (Kl. pneumoniae; table 2 (BB-S493), Kl. pneumoniae A15130): 0.1 µg/mL (≈ 0.167 µM)
MIC (Kl. pneumoniae; table 4 (BB-S 525), Kl. pneumoniae, 1st line): 0.8 µg/mL (≈ 1.33 µM)
MIC (Kl. pneumoniae; table 4 (BB-S 525), Kl. pneumoniae, 2nd line): 0.1 µg/mL (≈ 0.167 µM)
MIC (Kl. pneumoniae; table 4 (BB-S 525), Kl. pneumoniae, 3rd line): 0.2 µg/mL (≈ 0.334 µM)
MIC (Kl. pneumoniae; table 4 (BB-S 525), Kl. pnuemoniae, 4th line): 0.2 µg/mL (≈ 0.334 µM)
MIC (Sal. typhosa; table 2 (BB-S493), Sal. typhosa A9498): 0.05 µg/mL (≈ 0.0834 µM)
MIC (Sal. typhosa; table 4 (BB-S 525), Sal. typhosa): 0.1 µg/mL (≈ 0.167 µM)
MIC (D. pneumoniae): 0.04 µg/mL (≈ 0.0667 µM)
MIC [2]: 2.1 µg/mL (≈ 3.5 µM)
MIC (Enterobacter (sensitive)): 0.5 µg/mL (≈ 0.834 µM)
MIC (E. coli (sensitive)): 0.2 µg/mL (≈ 0.334 µM)
MIC (Klebsiella sp.): 0.6 µg/mL (≈ 1 µM)
ED50 (S. aureus Smith; Staphylococcus aureus, read-out: PD50): 0.16 mg/kg
PD50 (S. aureus Smith): 0.12 mgm./kg. and 0.2 mgm./kg.
MIC (S. pyogenes): 0.04 µg/mL (≈ 0.0667 µM)
MIC [3]: 0.9 µg/mL (≈ 1.5 µM)
MIC (St. faecalis; table 2 (BB-S493), St. faecalis A9536): 100 µg/mL (≈ 167 µM)
MIC (St. faecalis; table 4 (BB-S 525), St. faecalis): > 100 µg/mL
MIC (Shig. dysenteriae; table 2 (BB-S493), Shig dysenteriae): 0.025 µg/mL (≈ 0.0417 µM)
MIC (Shig. dysenteriae; table 4 (BB-S 525), Shig. dysenteriae): 0.1 µg/mL (≈ 0.167 µM)
MIC (S. aureus (sensitive)): 0.3 µg/mL (≈ 0.5 µM)
MIC (Serr. marcescens; table 4 (BB-S 525), Serr. marcescens): 12.5 µg/mL (≈ 20.8 µM)
MIC (Serr. marcescens; table 2 (BB-S493), Serr. marcescens A20019, read-out: MIC): 25 µg/mL (≈ 41.7 µM)
MIC (S. marcescens): 35 µg/mL (≈ 58.4 µM)
MIC (Pr. mirabilis; table 2 (BB-S493), Pr. mirabilis A9554): 0.1 µg/mL (≈ 0.167 µM)
MIC (Pr. mirabilis; table 2 (BB-S493), Pr. mirabilis A9900): 0.1 µg/mL (≈ 0.167 µM)
MIC (Pr. mirabilis; table 4 (BB-S 525), Pr. mirabilis, 1st line): 0.1 µg/mL (≈ 0.167 µM)
MIC (Pr. mirabilis; table 4 (BB-S 525), Pr. mirabilis, 2nd line): 0.1 µg/mL (≈ 0.167 µM)
MIC (Pr. morganii; table 2 (BB-S493), Pr. morganii A9553): > 100 µg/mL
MIC (Pr. morganii; table 2 (BB-S493), Pr. morganii A20031): 0.1 µg/mL (≈ 0.167 µM)
MIC (Pr. morganii; table 4 (BB-S 525), Pr. morganii, 1st line): > 100 µg/mL
MIC (Pr. morganii; table 4 (BB-S 525), Pr. morganii, 2nd line): 0.2 µg/mL (≈ 0.334 µM)
MIC (Sal. enteritidis; table 2 (BB-S493), Sal. enteritidis A9531): 0.05 µg/mL (≈ 0.0834 µM)
MIC (Sal. enteritidis; table 4 (BB-S 525), Sal. enteritidis): 0.1 µg/mL (≈ 0.167 µM)
